pIC50: −log10 of the molar value. Counter-ions that a name gives are not always drawn.
System: IL-2 production
Experiment: Inhibition of IL-2 production in PHA-activated Jurkat cells (ELISA)
Type: cell-based
Conditions: Homo sapiens, PHA 2.5 μg/mL, IL-2 ELISA
Protocol: Jurkat cells were placed in a 96 well plate (0.5 million cells per well in 1% FBS medium) then a test compound of this invention was added at different concentrations. After 10 minutes, the cells were activated with PHA (final concentration 2.5 μg/mL) and incubated for 20 hours at 37° C. under CO2. The final volume was 200 μL. Following incubation, the cells were centrifuged and the supernatants collected and stored at −70° C. prior to assaying for IL-2 production. A commercial ELISA kit (IL-2 Eli-pair, Diaclone Research, Besancon, France) was used to detect production of IL-2, from which dose response curves were obtained.

Structure (SMILES) | pIC50 (Jurkat, 20 h) | pIC50 (20 hours)
COc1ccc(OC)c(-c2csc(NC(=O)c3c(F)cccc3F)n2)c1 [Compound 2, N-[4-(2,5-Dimethoxy-phenyl)-thiazol-2-yl]-2,6-difluoro-benzamide] | < 6.00 | 
COc1ccc(OC)c(-c2cnc(NC(=O)c3c(F)cccc3F)s2)c1 [Compound 3, N-[5-(2,5-Dimethoxy-phenyl)-thiazol-2-yl]-2,6-difluoro-benzamide] | 6.70 to 7.00 | 
O=C(Nc1ncc(-c2cc(C(F)(F)F)ccc2Cl)s1)c1c(F)cccc1F [Compound 4, N-[5-(2-Chloro-5-trifluoromethyl-phenyl)-thiazol-2-yl]-2,6-difluoro-benzamide] | 7.00 to 7.30 | 
N#Cc1cccc(-c2cnc(NC(=O)c3c(F)cccc3F)s2)c1 [Compound 6, N-[5-(3-Cyano-phenyl)-thiazol-2-yl]-2,6-difluoro-benzamide] | < 6.00 | 
Cn1nnc(-c2cccc(-c3cnc(NC(=O)c4c(F)cccc4F)s3)c2)n1 [Compound 7, 2,6-Difluoro-N-{5-[3-(2-methyl-2H-tetrazol-5-yl)-phenyl]-thiazol-2-yl}-benzamide] | < 6.00 | 
COC(=O)c1cccc(-c2sc(NC(=O)c3c(F)cccc3F)nc2C)c1 [Compound 8, 3-[2-(2,6-Difluoro-benzoylamino)-4-methyl-thiazol-5-yl]-benzoic acid methyl ester] | 6.30 to 6.70 | 
Cc1nc(NC(=O)c2c(F)cccc2F)sc1-c1cccc(C(F)(F)F)c1 [Compound 9, 2,6-Difluoro-N-[4-methyl-5-(3-trifluoromethyl-phenyl)-thiazol-2-yl]-benzamide] | 7.30 to 7.52 | 
Cc1nc(NC(=O)c2ccncc2F)sc1-c1cccc(C(F)(F)F)c1 [Compound 10, 3-Fluoro-N-[4-methyl-5-(3-trifluoromethyl-phenyl)-thiazol-2-yl]-isonicotinamide] | < 6.00 | 
Cc1nnsc1C(=O)Nc1nc(C)c(-c2cccc(C(F)(F)F)c2)s1 [Compound 12, 4-Methyl-[1,2,3]thiadiazole-5-carboxylic acid [4-methyl-5-(3-trifluoromethyl-phenyl)-thiazol-2-yl]-amide] | < 6.00 | 
Cc1nc(NC(=O)c2c(F)cccc2F)sc1-c1cccc(C#N)c1 [Compound 13, N-[5-(3-Cyano-phenyl)-4-methyl-thiazol-2-yl]-2,6-difluoro-benzamide] | 6.70 to 7.00 | 
O=C(Nc1nnc(-c2cc(C(F)(F)F)ccc2Cl)s1)c1c(F)cccc1F [Compound 44, N-[5-(2-Chloro-5-trifluoromethyl-phenyl)-[1,3,4]thiadiazol-2-yl]-2,6-difluoro-benzamide] | < 6.00 | 
Cc1nc(NC(=O)c2c(F)cccc2F)sc1-c1cccc(C(F)(F)F)c1 [Compound 48, Sodium (2,6-difluorobenzoyl)(4-methyl-5-(3-(trifluoromethyl)phenyl)thiazol-2-yl)amide] |  | 7.00 to 7.30
Cc1nc(NC(=O)c2cccnc2F)sc1-c1cccc(C(F)(F)F)c1 [Compound 50, 2-Fluoro-N-(4-methyl-5-(3-(trifluoromethyl)phenyl)thiazol-2-yl)nicotinamide] | 6.30 to 6.70 | 
Cc1ncccc1C(=O)Nc1nc(C)c(-c2cccc(C(F)(F)F)c2)s1 [Compound 51, 2-Methyl-N-(4-methyl-5-(3-(trifluoromethyl)phenyl)thiazol-2-yl)nicotinamide] | < 6.00 | 
O=C(Nc1nc(C2CC2)c(-c2cccc(C(F)(F)F)c2)s1)c1c(F)cccc1F [Compound 52, N-(4-Cyclopropyl-5-(3-(trifluoromethyl)phenyl)thiazol-2-yl)-2,6-difluorobenzamide] | 7.00 to 7.30 | 
Cc1cnccc1C(=O)Nc1nc(C2CC2)c(-c2cccc(C(F)(F)F)c2)s1 [Compound 53, N-(4-cyclopropyl-5-(3-(trifluoromethyl)phenyl)thiazol-2-yl)-3-methylisonicotinamide] | 7.00 to 7.30 | 
Cc1nc(NC(=O)c2c(F)cccc2F)sc1-c1ccncc1 [Compound 54, 2,6-Difluoro-N-(4-methyl-5-(pyridin-4-yl)thiazol-2-yl)benzamide hydrobromide] | < 6.00 | 
COc1ccc(OC)c(-c2sc(NC(=O)c3c(F)cccc3F)nc2C)c1 [Compound 55, N-(5-(2,5-Dimethoxyphenyl)-4-methylthiazol-2-yl)-2,6-difluorobenzamide] | 6.30 to 6.70 | 
Cc1nc(NC(=O)c2c(F)cccc2F)sc1-c1cc(Br)c2c(c1)OCO2 [Compound 56, N-(5-(7-Bromobenzo[d][1,3]dioxol-5-yl)-4-methylthiazol-2-yl)-2,6-difluorobenzamide] | 6.30 to 6.70 | 
Cc1nc(NC(=O)c2c(F)cccc2F)sc1-c1ccc2c(c1)OCO2 [Compound 57, N-(5-(Benzo[d][1,3]dioxol-5-yl)-4-methylthiazol-2-yl)-2,6-difluorobenzamide] | 6.30 to 6.70 | 

Structure (SMILES) | pIC50 (Jurkat, 20 h) | pIC50 (20 hours)
Cc1nc(NC(=O)c2c(F)cccc2F)sc1-c1cc(C#N)c2c(c1)OCO2 [Compound 58, N-(5-(7-Cyanobenzo[d][1,3]dioxol-5-yl)-4-methylthiazol-2-yl)-2,6-difluorobenzamide] | 6.30 to 6.70 | 
Cc1nc(NC(=O)c2c(F)cccc2F)sc1-c1ccc(Br)s1 [Compound 59, N-(5-(5-Bromothiophen-2-yl)-4-methylthiazol-2-yl)-2,6-difluorobenzamide] | 6.70 to 7.00 | 
Cc1nc(NC(=O)c2c(F)cccc2F)sc1-c1cc(Br)sc1Br [Compound 61, N-(5-(2,5-Dibromothiophen-3-yl)-4-methylthiazol-2-yl)-2,6-difluorobenzamide] | 6.30 to 6.70 | 
Cc1nc(NC(=O)c2c(F)cccc2F)sc1-c1ccsc1 [Compound 62, 2,6-Difluoro-N-(4-methyl-5-(thiophen-3-yl)thiazol-2-yl)benzamide] | < 6.00 | 
C=CCOc1ccc(C(F)(F)F)cc1-c1sc(NC(=O)c2c(F)cccc2F)nc1C(=O)OC [Compound 63, Methyl 5-(2-(allyloxy)-5-(trifluoromethyl)phenyl)-2-(2,6-difluorobenzamido)thiazole-4-carboxylate] | < 6.00 | 
C=CCOc1ccc(C(F)(F)F)cc1-c1sc(NC(=O)c2c(F)cccc2F)nc1C(=C)C [Compound 64, N-(5-(2-(Allyloxy)-5-(trifluoromethyl)phenyl)-4-(prop-1-en-2-yl)thiazol-2-yl)-2,6-difluorobenzamide] | < 6.00 | 
C=CCOc1ccc(C(F)(F)F)cc1-c1cnc(NC(=O)c2c(F)cccc2F)s1 [Compound 65, N-(5-(2-(Allyloxy)-5-(trifluoromethyl)phenyl)thiazol-2-yl)-2,6-difluorobenzamide] | < 6.00 | 
O=C(O)c1nc(NC(=O)c2c(F)cccc2F)sc1-c1cccc(C(F)(F)F)c1 [Compound 66, 2-(2,6-difluorobenzamido)-5-(3-(trifluoromethyl)phenyl)thiazole-4-carboxylic acid] | < 6.00 | 
O=Cc1nc(NC(=O)c2c(F)cccc2F)sc1-c1cccc(C(F)(F)F)c1 [Compound 67, 2,6-Difluoro-N-(4-formyl-5-(3-(trifluoromethyl)phenyl)thiazol-2-yl)benzamide] | < 6.00 | 
CC(C)(O)c1nc(NC(=O)c2c(F)cccc2F)sc1-c1cccc(C(F)(F)F)c1 [Compound 68, 2,6-Difluoro-N-(4-(2-hydroxypropan-2-yl)-5-(3-(trifluoromethyl)phenyl)thiazol-2-yl)benzamide] | < 6.00 | 
C=C(C)c1nc(NC(=O)c2c(F)cccc2F)sc1-c1cccc(C(F)(F)F)c1 [Compound 68a, 2,6-difluoro-N-(4-(prop-1-en-2-yl)-5-(3-(trifluoromethyl)phenyl)thiazol-2-yl)benzamide] | 7.00 to 7.30 | 
CC(C)c1nc(NC(=O)c2c(F)cccc2F)sc1-c1cccc(C(F)(F)F)c1 [Compound 69, 2,6-Difluoro-N-(4-isopropyl-5-(3-(trifluoromethyl)phenyl)thiazol-2-yl)benzamide] | 6.30 to 6.70 | 
O=C(Nc1nc(CCl)c(-c2cccc(C(F)(F)F)c2)s1)c1c(F)cccc1F [Compound 70, N-(4-(Chloromethyl)-5-(3-(trifluoromethyl)phenyl)thiazol-2-yl)-2,6-difluorobenzamide] | < 6.00 | 
O=C(Nc1nc(/C=N\O)c(-c2cccc(C(F)(F)F)c2)s1)c1c(F)cccc1F [Compound 72, (Z)-2,6-difluoro-N-(4-((hydroxyimino)methyl)-5-(3-(trifluoromethyl)phenyl)thiazol-2-yl)benzamide] | < 6.00 | 
N#Cc1nc(NC(=O)c2c(F)cccc2F)sc1-c1cccc(C(F)(F)F)c1 [Compound 73, N-(4-Cyano-5-(3-(trifluoromethyl)phenyl)thiazol-2-yl)-2,6-difluorobenzamide] | 6.30 to 6.70 | 
CC(O)c1nc(NC(=O)c2c(F)cccc2F)sc1-c1cccc(C(F)(F)F)c1 (stereo not shown) [Compound 74, 2,6-Difluoro-N-(4-(1-hydroxyethyl)-5-(3-(trifluoromethyl)phenyl)thiazol-2-yl)benzamide] | < 6.00 | 
C=Cc1nc(NC(=O)c2c(F)cccc2F)sc1-c1cccc(C(F)(F)F)c1 [Compound 75, 2,6-Difluoro-N-(5-(3-(trifluoromethyl)phenyl)-4-vinylthiazol-2-yl)benzamide] | 6.30 to 6.70 | 
O=C(Nc1nc(-c2cnco2)c(-c2cccc(C(F)(F)F)c2)s1)c1c(F)cccc1F [Compound 76, 2,6-Difluoro-N-(4-(oxazol-5-yl)-5-(3-(trifluoromethyl)phenyl)thiazol-2-yl)benzamide] | 7.00 to 7.30 | 
O=C(Nc1nc(C2=NCCN2)c(-c2cccc(C(F)(F)F)c2)s1)c1c(F)cccc1F [Compound 77, N-(4-(4,5-Dihydro-1H-imidazol-2-yl)-5-(3-(trifluoromethyl)phenyl)thiazol-2-yl)-2,6-difluorobenzamide] | < 6.00 | 
O=C(Nc1nc(-c2ncc[nH]2)c(-c2cccc(C(F)(F)F)c2)s1)c1c(F)cccc1F [Compound 78, N-(4-(1H-Imidazol-2-yl)-5-(3-(trifluoromethyl)phenyl)thiazol-2-yl)-2,6-difluorobenzamide hydrochloride] | < 6.00 | 

From patent US8455658B2, “Thiazole and thiadiazole compounds for inflammation and immune-related uses” (Synta Pharmaceuticals Corp., priority 2006, dated 2013)
